Patent US5880284A, “Cyclic urea derivatives, pharmaceutical compositions containing these compounds and processes for preparing them” (Dr. Karl Thomae GmbH, priority 1992, dated 1999)
Counter-ions that a name gives are not always drawn. Like-named read-outs stand apart in the source and are kept apart here.

Key:
human thrombocytes = assay: Inhibition of binding of 3H-BIBU 52 to human thrombocytes (fibrinogen-binding test); settings: 3H-BIBU 52 final concentration 5 nM, plasma, 20 minutes, ambient temperature; 50% inhibition of binding
Experimental: Inhibition of Binding of ^3 H-BIBU 52 to Human Thrombocytes
A suspension of human thrombocytes in plasma is incubated with ^3 H-BIBU 52 [=(3S,5S)-5-[(4'-amidino-4-biphenylyl)oxymethyl]-3-[(carboxyl)methyl]-2-pyrrolidinone[^3 -^3 H-4-biphenylyl]] […] The free and bound ligand is separated by centrifuging and quantitatively determined by scintillation counting. From the measurements obtained, the inhibition of ^3 H-BIBU 52 binding by the test substance is determined.
In order to do this, donor blood is taken from an anticubital vein and anticoagulated by trisodium citrate (final concentration 13 mM). The blood is centrifuged for 10 minutes at 170×g and the supernatant platelet-rich plasma (PRP) is removed. The remaining blood is vigorously centrifuged once more in order to obtain plasma. The PRP is diluted 1:10 with autologous plasma. 750 μl are incubated with 50 μl of physiological saline solution, 100 μl of test substance solution, 50 μl of ^4 C-sucrose (3,700 Bq) and 50 μl of ^3 H-BIBU 52 (final concentration: 5 nM) at ambient temperature for 20 minutes. In order to measure non-specific binding, instead of the test substance, 5 μl of BIBU 52 are put in (final concentration: 30 μM). The samples are centrifuged for 20 seconds at 10,000×g and the supernatant is drawn off. 100 μl therof are measured in order to determine the free ligand. The pellet is dissolved in 500 μl of 0.2N NaOH, 450 μl are mixed with 2 ml of scintillator and 25 μl of 5N HCl and measured. The residual plasma remaining in the pellet is determined from the ^14 C content, the bound ligand from the ^3 H measurement. After subtracting the non-specific binding, the pellet activity is plotted against the concentration of the test substance and the concentration for a 50% inhibition of binding is determined.

thrombocyte aggregation = assay: Inhibition of collagen-induced platelet aggregation in platelet-rich plasma (Born and Cross); type: cell-based; settings: Homo sapiens, 10 min, read-out: Inhibition of platelet aggregation EC50
Experimental: The thrombocyte aggregatrion is measured using the Born and Cross method (J. Physiol. 170: 397 (1964)) in platelet-rich plasma taken from health volunteers. To inhibit coagulation the blood is mixed with 3.14% sodium citrate in a ratio by volume of 1:10.
Collagen-induced agaregation
The pattern of the decrease in optical density of the platelet suspension is photometrically measured and recorded after the addition of the aggregation-triggering substance. The rate of aggregation is concluded from the angle of inclination of the density curve. The point on the curve where there is maximum light transmittance is used to calculate the optical density.
The amount of collagen used is as small as possible but sufficient to produce an irreversible reaction curve. Standard commercial collagen produced by Hormonchemie of Munich is used.
Before the addition of the collagen the plasma is incubated for 10 minutes with the substance at 37° C.
From the measurements obtained an EC50 is determined graphically, indicating a 50% change in the optical density in terms of the inhibition of aggregation.

[1] = Tolerability after intravenous administration to mice; type: in vivo
thrombocytes = assay: Collagen-induced aggregation of thrombocytes ex vivo after oral administration; type: in vivo; settings: rhesus monkey, oral administration of 1 mg/kg
Experimental: Moreover, the compound of Example 6(14), for example, inhibits the collagen-induced aggregation of thrombocytes in the rhesus monkey ex vivo after the oral administration of 1 mg/kg for up to four hours.

[2] = collagen-induced, platelet-rich plasma, 10 minutes incubation at 37° C., 50% change in optical density

SMILES	IC50 (human thrombocytes) [µM]	EC50 (thrombocyte aggregation; [2]) [µM]	Deaths after intravenous administration ([1]; mouse, in vivo, iv, 30 mg/kg)	EC50 (thrombocyte aggregation; Platelet) [µM]	Deaths after intravenous administration ([1]; mice, 30 mg/kg intravenous, three animals)	Duration of inhibition of collagen-induced aggregation of thrombocytes ex vivo (thrombocytes)
N#CC1(c2ccc(N3CCN(CCCCC(=O)O)C3=O)cc2)CCNCC1 [24(1), 1-(4-carboxybutyl)-3-[4-(4-cyano-4-piperidinyl)-phenyl]-imidazolidin-2-one]	0.15	0.94	–	–	–	–
Cl.O=C1N(c2ccc(C3CCNCC3)cc2)CCN1[C@H]1CC[C@H](C(=O)O)CC1 [Example 17, 1-(trans-4-Carboxycyclohexyl)-3-[4-(4-piperidinyl)phenyl]-imidazolidin-2-one-hydrochloride]	0.016	0.043	none of the three animals tested died	–	–	–
CCOC(=O)CCc1ccc(N2CCN(CCC3CCNCC3)C2=O)cc1 [6(34), 1-[4-[2-(ethoxycarbonyl)ethyl]phenyl]-3-(2-(4-piperidinyl)ethyl]-imidazolidin-2-one-hydrochloride]	21	0.35	–	–	–	–
NCC1CCc2cc(N3CCN([C@H]4CC[C@H](C(=O)O)CC4)C3=O)ccc2C1 (relative stereo) [1(44), 1-(2-aminomethyl-1,2,3,4-tetrahydro-6-naphthyl)-3-(trans-4-carboxycyclohexyl)-imidazolidin-2-one-hydrochloride]	–	0.38	–	–	–	–
CCOC(=O)[C@H]1CC[C@H](N2CCN(c3ccc(C4CCNCC4)cc3)C2=O)CC1 [6(40), 1-[trans-4-(ethoxycarbonyl)cyclohexyl]-3-[4-(4-piperidinyl)phenyl]-imidazolidin-2-one-hydrochloride]	2.5	0.24	–	–	–	–
O=C(O)CO[C@H]1CC[C@H](N2CCN(CCC3CCNCC3)C2=O)CC1 [30(4), 1-[trans-4-[(carboxymethyl)oxy]cyclohexyl]-3-[2-(4-piperidinyl)ethyl]-imidazolidin-2-one-hydrochloride×0.3 H2 O]	0.2	0.49	–	–	–	–
CCOC(=O)CC[C@H]1CC[C@H](N2CCN(CCC3CCNCC3)C2=O)CC1 [6(35), 1-[trans-4-[2-(ethoxycarbonyl)ethyl]cyclohexyl]-3-[2-(4-piperidinyl)ethyl]-imidazolidin-2-one-hydrochloride]	5.7	0.63	–	–	–	–
O=C1N(C2CCC(C3CCNCC3)CC2)CCN1[C@H]1CC[C@H](C(=O)O)CC1 (some centres unmarked) [18(2)]	–	0.11	–	–	–	–
CCCCS(=O)(=O)NC(Cc1ccc(N2CCN(c3ccc(C(=N)N)cc3)C2=O)cc1)C(=O)O (centres unmarked) [1(21), 1-(4-amidinophenyl)-3-[4-[2-(n-butylsulfonylamino)-2-carboxy-ethyl]phenyl]-imidazolidin-2-one-hydrochloride]	0.001	0.036	–	–	–	–
CC1(c2ccc(N3CCN([C@H]4CC[C@H](C(=O)O)CC4)C3=O)cc2)CCNCC1 [24(2), 1-(trans-4-carboxycyclohexyl)-3-[4-(4-methyl-4-piperidinyl)phenyl]-imidazolidin-2-one]	–	0.071	–	–	–	–
Cc1nn(-c2ccc(C(=N)N)cc2)c(=O)n1[C@H]1CC[C@@H](CCC(=O)O)CC1 [Example 4, 2-(4-Amidinophenyl)-4-[cis-4-(2-carboxyethyl)cyclo-hexyl]-5-methyl-4H-1,2,4-triazol-3-one]	–	0.13	–	–	–	–
O=C(O)C=Cc1ccc(N2CCN(CCC3CCNCC3)C2=O)c(F)c1 [4(13), 1-[4-(2-carboxyethenyl)-2-fluoro-phenyl]-3-[2-(4-piperidinyl)ethyl]-imidazolidin-2-one×1.1 HCl×1 H2 O]	0.25	0.3	–	–	–	–
NCC1CCC(N2CCN(c3ccc(CCC(=O)O)cc3)C2=O)CC1 (centres unmarked) [4(5), 1-[4-(aminomethyl)cyclohexyl]-3-[4-(2-carboxyethyl)phenyl]-imidazolidin-2-one]	4.1	3.3	–	–	–	–
N=C(N)c1ccc(-n2ncn([C@H]3CC[C@H](CCC(=O)O)CC3)c2=O)cc1 [4(4), 2-(4-amidinophenyl)-4-[trans-4-(2-carboxyethyl)-cyclohexyl]-4H-1,2,4-triazol-3-one]	0.0029	0.03	–	–	–	–
O=C(O)CCc1ccc(N2CCN(CCC3CCNCC3)C2=O)cc1 [1(6), 1-[4-(2-carboxyethyl)phenyl]-3-[2-(4-piperidinyl)ethyl]-imidazolidin-2-one-hydrochloride×water]	0.018	0.1	none of the three animals tested died	–	–	–
CCCC(Cc1ccc(-n2c(C)nn(CCC3CCNCC3)c2=O)cc1)C(=O)O (centres unmarked) [1(8), 4-[4-(2-carboxy-1-pentyl)phenyl]-5-methyl-2-(2-(4-piperidinyl)ethyl)-4H-1,2,4-triazol-3-one-hydrochloride]	0.76	1.2	–	–	–	–
Cl.O=C(O)CC[C@H]1CC[C@H](N2CCN(CCC3CCNCC3)C2=O)CC1 [1(39), 1-[trans-4-(2-carboxyethyl)cyclohexyl]-3-[2-(4-piperidinyl)ethyl]-imidazolidin-2-one-hydrochloride]	0.025	0.086	none of the three animals tested died	–	–	–
Cc1nn(CCC2CCNCC2)c(=O)n1-c1ccc(CCC(=O)O)cc1 [1(4), 4-[4-(2-carboxyethyl)phenyl]-5-methyl-2-[2-(4-piperidinyl)ethyl]-4H-1,2,4-triazol-3-one-toluenesulphonate×water]	0.28	0.5	none of the three animals tested died	–	–	–
Cc1nn(-c2ccc(C(=N)N)cc2)c(=O)n1-c1cccc(CCC(=O)O)c1 [5(2), 2-(4-amidinophenyl)-4-[3-(2-carboxyethyl)phenyl]-5-methyl-4H-1,2,4-triazol-3-one]	0.72	0.84	–	–	–	–
CN1CCC(CCN2CCN(c3ccc(CCC(=O)O)cc3)C2=O)CC1 [Example 15]	12	4.3	–	–	–	–
N=C(N)c1ccc(N2CCN(c3ccc(CCc4nnn[nH]4)cc3)C2=O)cc1 [2(5), 1-(4-amidinophenyl)-3-[4-[2-(5-tetrazolyl)ethyl]phenyl]-imidazolidin-2-one]	3.5	3.2	–	–	–	–
Cl.O=C(O)CCc1ccc(N2CCN(CCC34CCN(CC3)CC4)C2=O)cc1 [Example 26, 1-[4-(2-Carboxyethyl)phenyl]-3-[2-(4-quinuclidinyl)ethyl]-imidazolidin-2-one-hydrochloride]	0.026	–	–	0.084	none of the three animals tested died	–
Cc1nn(-c2ccc(C(=N)N)cc2)c(=O)n1-c1ccc(CCC(=O)OC2CCCCC2)cc1.Cl [Example 6(14), 2-(4-amidinophenyl)-4-[4-[2-(cyclohexyloxycarbonyl)-ethyl]phenyl]-5-methyl-4H-1,2,4-triazol-3-one-hydrochloride]	0.25	0.04	–	–	–	up to four
N=C(N)c1ccc(-n2nc(-c3ccccc3)n(-c3ccc(CCC(=O)O)cc3)c2=O)cc1 [1(2), 2-(4-amidinophenyl)-4-[4-(2-carboxyethyl)phenyl]-5-phenyl-4H-1,2,4-triazol-3-one×2 water]	0.0012	0.07	–	–	–	–
Cc1nn(-c2ccc(C(=N)N)cc2)c(=O)n1-c1ccc(CC(C)C(=O)O)cc1 (centres unmarked) [1(1), 2-(4-amidinophenyl)-4-[4-(2-carboxy-1-propyl)phenyl]-5-methyl-4H-1,2,4-triazol-3-one×0.5 water]	0.0008	0.03	none of the three animals tested died	–	–	–
NC1CCCc2cc(N3CCN(c4ccc(CCC(=O)O)cc4)C3=O)ccc21 (centres unmarked) [1(3), 1-(1-amino-1,2,3,4-tetrahydronaphthalin-6-yl)-3-[4-(2-carboxyethyl)phenyl]-imidazolidin-2-one-hydrochloride]	0.064	0.27	–	–	–	–
O=C1N(c2ccc(C34CCN(CC3)CC4)cc2)CCN1[C@H]1CC[C@H](C(=O)O)CC1 [1(50), 1-(trans-4-carboxycyclohexyl)-3-[4-(4-quinuclidinyl)-phenyl]-imidazolidin-2-one-hydrochloride×1.2 H2 O]	0.065	–	–	0.17	–	–
CCOC(=O)CCc1ccc(N2CCN(CCC34CCN(CC3)CC4)C2=O)cc1 [6(37), 1-[2-(4-quinuclidinyl)ethyl]-3-[4-[2-(ethoxycarbonyl)-ethyl]phenyl]-imidazolidin-2-one-hydro-chloride]	7.1	–	–	0.38	–	–
